Key:
[1] = target: Leukotriene B4 receptor 1 (Homo sapiens, UniProt Q15722); test: Binding affinity at leukotriene B4 receptor on intact human PMNs by displacement of [3H]LTB4.
Homo sapiens [2] = organism: Homo sapiens; test: Concentration of test compound required to inhibit 50% LTB4-induced calcium mobilization in intact human PMNs; type: functional
Homo sapiens [3] = organism: Homo sapiens; test: Concentration of test compound required to inhibit 50% LTB4-induced degranulation of human PMNs; type: functional
Mus musculus [4] = organism: Mus musculus; test: Effective concentration required for inhibition of LTB4-induced (250 ng/mL) PMN infiltration; type: functional
Mus musculus [5] = organism: Mus musculus; test: Effective concentration required per ear of mouse for inhibition of neutrophil infiltration; type: functional
Mus musculus [6] = organism: Mus musculus; test: Compound was tested for its effect on mouse ear for reduction of PMN infiltration; type: functional
Mus musculus [7] = test: Effective concentration required per ear of mouse for inhibition of edematous response; type: functional

Leukotriene B4 receptor 1, sequence (Q15722 whole entry): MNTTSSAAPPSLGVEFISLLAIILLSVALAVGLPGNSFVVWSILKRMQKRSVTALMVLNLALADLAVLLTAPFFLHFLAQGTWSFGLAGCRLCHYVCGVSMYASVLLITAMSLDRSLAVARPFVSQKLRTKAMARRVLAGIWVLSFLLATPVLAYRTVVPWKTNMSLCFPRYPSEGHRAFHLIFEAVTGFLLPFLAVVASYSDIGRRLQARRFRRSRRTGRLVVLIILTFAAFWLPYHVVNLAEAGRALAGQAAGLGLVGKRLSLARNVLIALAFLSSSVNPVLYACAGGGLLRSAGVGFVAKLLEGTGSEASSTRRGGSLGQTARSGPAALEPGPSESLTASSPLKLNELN

SMILES | Ki [1] | IC50 (Homo sapiens [2]) | IC50 (Homo sapiens [3]) | ED50 (Mus musculus [4]) | ED50 (Mus musculus [5]) | Reduction (Mus musculus [6]) | ED50 (Mus musculus [7])
O=C(O)/C=C/c1nc(CSCc2cccc(C(=O)O)c2)ccc1OCCCCCCCCc1ccccc1 | 15.4 nM | 320 nM | 500 nM |  |  |  | 
COc1ccc(CCCCCCCCOc2ccc(C[S+]([O-])Cc3ccc(C(=O)O)cc3)nc2/C=C/C(=O)O)cc1 (centres undefined) | 161 nM | 7000 nM |  |  |  |  | 
COc1ccc(CCCCOc2ccc(CSCc3cccc(C(=O)O)c3)nc2CCC(=O)O)cc1 | 28 nM | 1900 nM | 3800 nM |  |  |  | 
O=C(O)/C=C/c1nc(CSCc2cccc(C(=O)O)c2)ccc1OCCCCc1ccccc1 | 4.8 nM | 500 nM | 1700 nM |  |  |  | 
COc1ccc(CCCCCCCCOc2ccc(CSCc3cccc(C(=O)O)c3)nc2CCC(=O)O)cc1 | 8 nM | 240 nM | 190 nM |  |  |  | 
CCCc1c(OCCCOc2ccc(C(=O)NC)c(OC)c2CC2CC2)ccc2c1O[C@H](CCC(=O)O)CC2 | 1.3 nM |  |  |  |  |  | 

Further lines, with some results ahead:

Ki [1] | IC50 (Homo sapiens [2]) | IC50 (Homo sapiens [3]) | SMILES | ED50 (Mus musculus [4]) | ED50 (Mus musculus [5]) | Reduction (Mus musculus [6]) | ED50 (Mus musculus [7])
240 nM | 3300 nM | 2600 nM | COc1ccc(CCCCCCCCOc2ccc(C[S+]([O-])Cc3cccc(C(=O)O)c3)nc2/C=C/C(=O)O)cc1 (centres undefined) |  |  |  | 
9.2 nM | 770 nM | 770 nM | COc1ccc(CCCCOc2ccc(CSCc3cccc(C(=O)O)c3)nc2/C=C/C(=O)O)cc1 |  |  |  | 
 | 550 nM | 1000 nM | COc1ccc(CCCCCCCCOc2ccc(CSc3cccc(C(=O)O)c3)nc2/C=C/C(=O)O)cc1 |  |  |  | 
5.7 nM | 175 nM | 426 nM | COc1ccc(CCCCCCCCOc2ccc(CSCc3ccc(C(=O)O)cc3)nc2/C=C/C(=O)O)cc1 |  |  |  | 
53 nM | 920 nM | 1000 nM | COc1ccc(CCCCCCCCOc2ccc(CS(=O)(=O)Cc3cccc(C(=O)O)c3)nc2/C=C/C(=O)O)cc1 |  |  |  | 
167 nM | 3900 nM | 3200 nM | COc1ccc(CCCCCCCCOc2ccc(C[S+]([O-])c3cccc(C(=O)O)c3)nc2/C=C/C(=O)O)cc1 (centres undefined) |  |  |  | 
112 nM | 710 nM |  | COc1ccc(CCCCCCCCOc2ccc(CSCc3ccccc3C(=O)O)nc2/C=C/C(=O)O)cc1 |  |  |  | 
 | 131 nM |  | COc1ccc(CCCCCCCCOc2ccc(CSCc3cccc(C(=O)O)c3)nc2/C=C/C(=O)O)cc1 | 7.1 mg/kg | 0.39 mg | 92% | 0.58 mg
